Reference: patent publication US11479622B2, “Active energy ray curable composition, active energy ray curable ink, composition accommodating container, two or three dimensional image forming apparatus, two or three dimensional image forming method, cured matter, decorative matter, artificial nail composition, nail decorative material, and …” (priority 2019, dated 2022)
Read-outs that look alike come from different tables or passages of the source.

Experiments:
female mice = system: female mice
Experimental: According to the skin sensitization test based on the Local Lymph Node Assay (LLNA), the SI value was measured in the following manner.
As positive control material, α-hexylcinnamaldehyde (HCA; product of Wako Pure Chemical Industries, Ltd.) was used.
As a medium, a liquid mixture containing acetone (product of Wako Pure Chemical Industries, Ltd.) and olive oil (product of Fudimi Pharmaceutical Co., Ltd.) in a volume ratio of 4 to 1 was used.
Before the test, female mice were acclimated about the test substances, the positive control, the medium control for 8 days including 6-day quarantine.
Based on the body weights measured two days before the initiation of sensitization, they were categorized into two groups (four mice/group) by the body weight stratified random sampling method so that the body weight of each individual was within ±20 percent of the average body weight of all the individuals. Each of the animals for the test was eight to nine weeks old at the time of the initiation of sensitization. The individuals remaining after the categorization were excluded from the test.
The test substance was weighed in a measuring flask, and the volume of the test substance was adjusted to 1 mL with the medium. The thus-prepared test substance preparation was placed in a light-shielded airtight container (made of glass).
Prepared liquids and media of each of the test substance and positive control substance were applied to both auricles of the animal in an amount of 25 μL of each. A micropipettor was used for application. This treatment was performed once a day for three consecutive days.
About 48 hours after the final sensitization, the BrdU preparation liquid (0.5 mL) was intraperitoneally administered once to each of the animals.
About 24 hours after the administration of BrdU, the tested animals were allowed to undergo euthanasia, and their auricular lymph nodes were sampled. The surrounding tissue of each auricular lymph node was removed, and the auricular lymph nodes from both the auricles were collectively weighed. Also, the average and standard error of the weights of the auricular lymph nodes were calculated for each group. After the measurement of the weights, the auricular lymph nodes of each individual were stored in a frozen state using a biomedical freezer set to −20 degrees C.
After returning the auricular lymph nodes to room temperature, the auricular lymph nodes were mashed with the gradual addition of physiological saline, and suspended therein. The thus-obtained suspension was filtrated and thereafter dispensed into the wells of a 96-well microplate, with 3 wells being used per individual. The thus-dispensed suspensions were measured for intake of BrdU by the ELISA method. The reagents used were those of a commercially available kit (Cell Proliferation ELISA, BrdU colorimetric, Cat. No. 1647229, product of Roche Diagnostics Inc.). A multiplate reader (FLUOSTAR OPTIMA, product of BMG LABTECH Inc.) was used to measure the absorbance of each well (OD: 370 nm to 492 nm, the intake of BrdU), and the average of the absorbance of the 3 wells for each individual was used as the measurement of BrdU for the individual.
As shown in the following formula, the measurement of BrdU intake for each individual was divided by the average of the measurements of BrdU intake in the vehicle control group to calculate the SI value for the individual. The SI value of each test group was the average of the SI values of the individuals. […] SI=(Average (average of 3 well) of BrdU measuring value of individual)/(Average (average of four animals) of BrdU measuring value of medium control group) Relation 1

[1] = format: cell-based; settings: OECD test guideline TG471 (±S9mix)
[2] = Oral toxicity according to OECD Test Guideline TG423; format: in vivo
[3] = in vivo
[4] = LLNA, BrdU intake by ELISA, mice, test substance 50.0 w/v percent in acetone/olive oil 4:1, 25 μL per auricle once per day × 3 days

Row | Molecule | SI (stimulation index) (female mice; female, mouse, in vivo, 3 days) | SI (stimulation index) (female mice; [4]) | other results
1 | C=CC(=O)N(C)[C@@H](C)C(=O)OC [Example A1-4, N-acryloyl-N-methyl alanine methyl ester] | (See Synthesis Example 4) SI = 1.12 | – | –
2 | C=CC(=O)N(C)CC(=O)OC [Example A1-1, N-acryloyl-N-methyl glycine methyl ester] | – | (See Synthesis Example 1) SI = 1.00 | SI value (skin sensitivity) (female mice; OECD Test Guideline TG442B): 1.00; AMES test [1]: negative; Oral toxicity, cases died [2]: 0 out of 6; LD50 ([2]; in vivo, 2000 mg/kg): ≥ 2000 mg/kg; PII (skin irritation) [3]: 0.5
3 | C=C(C)C(=O)OCC(COC(=O)C(=C)C)OC(C)=O [Example B1-6, 2-acetyl-1,3-glycerol dimethacrylate] | (See Synthesis Example 8) SI = 1.40 | – | –
4 | C=C(C)C(=O)OCC(CC)(COC(=O)C(=C)C)COC(=O)C(=C)C [Example B1-3, trimethylol propane trimethacrylate] | – | TMPT, SI = 1.03, manufactured by Shin Nakamura Chemical Co., Ltd. | –
5 | Isobornyl acrylate [Example A2-2, reference compound] | – | Isobornyl acrylate, SI = 8.30, manufactured by Osaka Organic Chemical Company | –
6 | C=C(C)C(=O)OCCO [Example A2-1, 2-hydroxyethyl methacrylate, reference compound] | – | 2-hydroxyethyl methacrylate, SI = 1.26, Manufactured by Tokyo Chemical Industry Co. Ltd.. | –
7 | C=C(C)C(=O)OCCOCCOC(=O)C(=C)C [Example B1-1, diethylene glycol dimethacrylate] | 2G, SI = 1.05, manufactured by Shin-Nakamura Chemical Co.,Ltd. | – | –
8 | C=CC(=O)N1CCC(C(=O)OCC)CC1 [Example A1-7, N-acryloyl-piperidine-4-ethyl carboxylate] | (See Synthesis Example 7) SI = 1.70 | – | –
9 | C=CC(=O)N(C)[C@@H](C)C(=O)OC(C)C [Example A1-6, N-acryloyl-N-methyl alanine isopropyl ester] | (See Synthesis Example 6) SI = 1.21 | – | –
10 | C=CC(=O)N(CC(=O)OC)C(C)C [Example A1-3, N-acryloyl-N-isopropyl glycine methyl ester] | (See Synthesis Example 3) SI = 1.05 | – | –
11 | C=CC(=O)OCC(CC)(COC(=O)C=C)COC(=O)C=C [Example B2-1, reference compound] | – | M-3547, SI = 3.42, manufactured by TOAGOSEI CO., LTD. | –
